Results as given in the supplement of paper PMC10733146.

What was measured:
Assay in all cases: viability relative to DMSO control (fraction); higher = less drug effect (more viable cells)
Conditions in all cases: 48 h
[1] = test system: primary T-PLL patient cells (S008)
How it was run: (§1)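 In 384-well plates with compounds pre-plated at five concentrations (one well per concentration), primary mononuclear tumour cells were plated at 4 × 10^4 cells per well. The cells came from blood or bone marrow by Ficoll isolation or from processed lymph node, and were used fresh or cryopreserved. Culture ran for 48 h at 37 °C and 5% CO2 in RPMI-1640 containing penicillin/streptomycin, L-glutamine and human serum. Viability was read as CellTiter-Glo luminescence, normalised to the median of 16 inner DMSO wells.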

[2] = test system: primary AML patient cells (S055)
How it was run: as §1

[3] = test system: primary AML patient cells (S091)
How it was run: as §1

[4] = test system: primary AML patient cells (S019)
How it was run: as §1

[5] = test system: primary MCL patient cells (S041)
How it was run: as §1

[6] = test system: primary DLBCL patient cells (S082)
How it was run: as §1

[7] = test system: primary AML patient cells (S037)
How it was run: as §1

[8] = test system: primary AML patient cells (S002)
How it was run: as §1

[9] = test system: primary AML patient cells (S025)
How it was run: as §1

[10] = test system: primary AML patient cells (S071)
How it was run: as §1

[11] = test system: primary AML patient cells (S089)
How it was run: as §1

[12] = test system: primary AML patient cells (S009)
How it was run: as §1

[13] = test system: primary AML patient cells (S072)
How it was run: as §1

[14] = test system: primary AML patient cells (S079)
How it was run: as §1

Nc1ncn([C@@H]2O[C@H](CO)[C@@H](O)[C@H]2O)c(=O)n1 [Azacytidine (Vidaza)]
viability ([1]; 0.032 µM): 0.965
viability ([1]; 0.16 µM): 1.02
viability ([1]; 0.8 µM): 0.988
viability ([1]; 4 µM): 0.704
viability ([1]; 20 µM): 0.289
viability ([2]; 0.032 µM): 1.04
viability ([2]; 0.16 µM): 1.05
viability ([2]; 0.8 µM): 0.806
viability ([2]; 4 µM): 0.233
viability ([2]; 20 µM): 0.0906
viability ([3]; 0.032 µM): 0.933
viability ([3]; 0.16 µM): 1.02
viability ([3]; 0.8 µM): 0.892
viability ([3]; 4 µM): 0.788
viability ([3]; 20 µM): 0.621
viability ([4]; 0.032 µM): 0.935
viability ([4]; 0.16 µM): 1.34
viability ([4]; 0.8 µM): 0.986
viability ([4]; 4 µM): 0.522
viability ([4]; 20 µM): 0.308
viability ([5]; 0.032 µM): 1.04
viability ([5]; 0.16 µM): 1.03
viability ([5]; 0.8 µM): 0.812
viability ([5]; 4 µM): 0.151
viability ([5]; 20 µM): 0.0515
viability ([6]; 0.032 µM): 0.969
viability ([6]; 0.16 µM): 1.08
viability ([6]; 0.8 µM): 1.07
viability ([6]; 4 µM): 1.04
viability ([6]; 20 µM): 0.26
viability ([7]; 0.032 µM): 1
viability ([7]; 0.16 µM): 1.01
viability ([7]; 0.8 µM): 0.901
viability ([7]; 4 µM): 0.7
viability ([7]; 20 µM): 0.595
viability ([8]; 0.032 µM): 0.946
viability ([8]; 0.16 µM): 0.979
viability ([8]; 0.8 µM): 0.667
viability ([8]; 4 µM): 0.31
viability ([8]; 20 µM): 0.229
viability ([9]; 0.032 µM): 1.07
viability ([9]; 0.16 µM): 0.961
viability ([9]; 0.8 µM): 0.757
viability ([9]; 4 µM): 0.285
viability ([9]; 20 µM): 0.0947
viability ([10]; 0.032 µM): 0.968
viability ([10]; 0.16 µM): 0.985
viability ([10]; 0.8 µM): 0.695
viability ([10]; 4 µM): 0.29
viability ([10]; 20 µM): 0.131
viability ([11]; 0.032 µM): 0.841
viability ([11]; 0.16 µM): 1.05
viability ([11]; 0.8 µM): 0.67
viability ([11]; 4 µM): 0.0823
viability ([11]; 20 µM): 0.0388
viability ([12]; 0.032 µM): 0.943
viability ([12]; 0.16 µM): 0.905
viability ([12]; 0.8 µM): 0.916
viability ([12]; 4 µM): 0.695
viability ([12]; 20 µM): 0.468
viability ([13]; 0.032 µM): 1.03
viability ([13]; 0.16 µM): 1.02
viability ([13]; 0.8 µM): 0.958
viability ([13]; 4 µM): 0.83
viability ([13]; 20 µM): 0.652
viability ([14]; 0.032 µM): 0.972
viability ([14]; 0.16 µM): 1.09
viability ([14]; 0.8 µM): 0.942
viability ([14]; 4 µM): 0.671
viability ([14]; 20 µM): 0.304

Nc1nc(Cl)nc2c1ncn2[C@@H]1O[C@H](CO)[C@@H](O)[C@@H]1F [Clofarabine]
viability ([1]; 0.024 µM): 0.989
viability ([1]; 0.12 µM): 0.864
viability ([1]; 0.6 µM): 0.64
viability ([1]; 3 µM): 0.562
viability ([1]; 15 µM): 0.551
viability ([2]; 0.024 µM): 0.951
viability ([2]; 0.12 µM): 0.792
viability ([2]; 0.6 µM): 0.677
viability ([2]; 3 µM): 0.507
viability ([2]; 15 µM): 0.446
viability ([3]; 0.024 µM): 0.661
viability ([3]; 0.12 µM): 0.527
viability ([3]; 0.6 µM): 0.482
viability ([3]; 3 µM): 0.459
viability ([3]; 15 µM): 0.425
viability ([4]; 0.024 µM): 0.918
viability ([4]; 0.12 µM): 0.476
viability ([4]; 0.6 µM): 0.392
viability ([4]; 3 µM): 0.431
viability ([4]; 15 µM): 0.345
viability ([5]; 0.024 µM): 0.862
viability ([5]; 0.12 µM): 0.254
viability ([5]; 0.6 µM): 0.0698
viability ([5]; 3 µM): 0.0397
viability ([5]; 15 µM): 0.0361
viability ([6]; 0.024 µM): 0.834
viability ([6]; 0.12 µM): 0.53
viability ([6]; 0.6 µM): 0.377
viability ([6]; 3 µM): 0.362
viability ([6]; 15 µM): 0.319
viability ([7]; 0.024 µM): 1.01
viability ([7]; 0.12 µM): 0.834
viability ([7]; 0.6 µM): 0.656
viability ([7]; 3 µM): 0.651
viability ([7]; 15 µM): 0.627
viability ([8]; 0.024 µM): 0.696
viability ([8]; 0.12 µM): 0.427
viability ([8]; 0.6 µM): 0.375
viability ([8]; 3 µM): 0.387
viability ([8]; 15 µM): 0.329
viability ([9]; 0.024 µM): 0.528
viability ([9]; 0.12 µM): 0.46
viability ([9]; 0.6 µM): 0.478
viability ([9]; 3 µM): 0.492
viability ([9]; 15 µM): 0.463
viability ([10]; 0.024 µM): 0.646
viability ([10]; 0.12 µM): 0.298
viability ([10]; 0.6 µM): 0.219
viability ([10]; 3 µM): 0.217
viability ([10]; 15 µM): 0.211
viability ([11]; 0.024 µM): 0.851
viability ([11]; 0.12 µM): 0.737
viability ([11]; 0.6 µM): 0.506
viability ([11]; 3 µM): 0.461
viability ([11]; 15 µM): 0.327
viability ([12]; 0.024 µM): 0.585
viability ([12]; 0.12 µM): 0.541
viability ([12]; 0.6 µM): 0.391
viability ([12]; 3 µM): 0.381
viability ([12]; 15 µM): 0.258
viability ([13]; 0.024 µM): 0.863
viability ([13]; 0.12 µM): 0.762
viability ([13]; 0.6 µM): 0.587
viability ([13]; 3 µM): 0.521
viability ([13]; 15 µM): 0.407
viability ([14]; 0.024 µM): 0.804
viability ([14]; 0.12 µM): 0.512
viability ([14]; 0.6 µM): 0.285
viability ([14]; 3 µM): 0.139
viability ([14]; 15 µM): 0.0818
